Where two headings read alike, the source gives them in different places.
Tests used:
[1] = molecular target: T1, full-length beta-Catenin (Uniprot ID P35222) (Homo sapiens, UniProt P35222); test: Fluorescence polarization IC50 (beta-catenin / 5FAM-TCF4 10-53 competition); type: binding
T1 construct: 10 nM full-length beta-Catenin (Uniprot ID P35222)
T1 sequence (P35222 1-781): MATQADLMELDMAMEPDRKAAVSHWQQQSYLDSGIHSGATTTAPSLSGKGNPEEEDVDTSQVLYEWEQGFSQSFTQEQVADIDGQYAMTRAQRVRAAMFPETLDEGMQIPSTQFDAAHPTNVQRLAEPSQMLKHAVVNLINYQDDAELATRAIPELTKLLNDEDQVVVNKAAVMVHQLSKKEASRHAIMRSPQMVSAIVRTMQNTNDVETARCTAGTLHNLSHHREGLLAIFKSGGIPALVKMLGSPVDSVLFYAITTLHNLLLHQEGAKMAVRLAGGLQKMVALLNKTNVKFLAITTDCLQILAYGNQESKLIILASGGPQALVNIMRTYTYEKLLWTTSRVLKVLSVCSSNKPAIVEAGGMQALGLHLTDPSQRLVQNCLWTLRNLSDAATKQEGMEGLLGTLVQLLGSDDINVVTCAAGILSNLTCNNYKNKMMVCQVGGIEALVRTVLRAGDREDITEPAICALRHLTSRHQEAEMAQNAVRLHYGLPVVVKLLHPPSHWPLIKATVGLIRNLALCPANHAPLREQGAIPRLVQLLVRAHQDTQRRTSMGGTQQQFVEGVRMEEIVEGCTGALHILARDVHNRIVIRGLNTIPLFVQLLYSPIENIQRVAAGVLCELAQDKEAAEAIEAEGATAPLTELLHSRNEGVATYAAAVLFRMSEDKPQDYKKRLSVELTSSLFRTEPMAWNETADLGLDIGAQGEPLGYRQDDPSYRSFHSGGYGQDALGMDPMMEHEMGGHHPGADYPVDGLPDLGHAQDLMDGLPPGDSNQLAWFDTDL

[2] = molecular target: T2, full-length B-Catenin (Uniprot ID P35222) (Homo sapiens, UniProt P35222); test: Alphascreen binding assay (beta-catenin / biotin-TCF4 10-53)
T2 construct: 65 nM full-length B-Catenin (Uniprot ID P35222)
T2 sequence (P35222 1-781): T1 sequence (P35222 1-781)
Procedure, shortened: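 Final concentrations: 65 nM full-length human β-catenin plus 10 nM biotin-TCF4(10-53) peptide, test peptide 3-fold from 10 uM to 5 nM, preincubated 15 min at 20 °C in Tris pH 8.0/250 mM NaCl buffer. Nickel-chelate AlphaScreen donor/acceptor beads then added for 60 min in the dark; duplicate reads fitted to 1:1 binding model with Hill slope.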

CHI Log D procedure = type: physicochemical; conditions: for chromatographic logD: pH 7.4, CHI Log D; for CHI Log D: pH 7.4
[3] = Table E2-1, read-out: beta-Catenin FP IC50
[4] = fluorescence polarization, beta-catenin, read-out: FP EC50

SMILES | IC50 [1, 3] [nM] | EC50 [2] [nM] | chromatographic logD (CHI Log D procedure) | IC50 [1, 4] [nM] | CHI Log D (CHI Log D procedure)
CC(=O)N1CCC[C@]12CC=CCCCC1(CCCC=CCCCCCC[C@@](C)(C(=O)N[C@@H](Cc3ccccc3)C(=O)N[C@@H](Cc3c[nH]c4ccccc34)C(=O)N[C@@H](CCC(N)=O)C(N)=O)NC(=O)[C@H](C(C)C)NC(=O)[C@H](Cc3ccccc3)NC(=O)[C@H](C)NC(=O)[C@H](C)NC(=O)[C@H](CCCC(=O)O)NC(=O)[C@H](CC(=O)O)NC1=O)NC(=O)[C@H](C)NC(=O)[C@H](CC(=O)O)NC2=O (stereo partly drawn) [I-129, Ac-PL3-Asp-Ala-B5-Asp-Aad-Ala-Ala-Phe-Val-S8-Phe-Trp-Gln-NH2] | 1980 | 83 | 2.11 |  | 
CC(=O)N1CCC[C@]12CC=CCCCC1(CCCC=CCCCCCC[C@@](C)(C(=O)N[C@@H](Cc3ccccc3)C(=O)N[C@@H](Cc3c[nH]c4ccccc34)C(=O)NC(C)(C)C(N)=O)NC(=O)[C@H](C(C)C)NC(=O)[C@H](Cc3ccccc3)NC(=O)[C@H](C)NC(=O)[C@H](C)NC(=O)[C@H](CCC(=O)O)NC(=O)[C@H](CC(=O)O)NC1=O)NC(=O)[C@H](C)NC(=O)[C@H](CC(=O)O)NC2=O (stereo partly drawn) [I-134, Ac-PL3-Asp-Ala-B5-Asp-Glu-Ala-Ala-Phe-Val-S8-Phe-Trp-Aib-NH2] | 2700 | 99 |  | 2700 | 2.426
CC(=O)N1CCC[C@]12CC=CCCCC1(CCCC=CCCCCCC[C@@](C)(C(=O)N[C@@H](Cc3ccccc3)C(=O)N[C@@H](Cc3csc4ccccc34)C(=O)N[C@@H](CCC(N)=O)C(N)=O)NC(=O)[C@H](C(C)C)NC(=O)[C@H](Cc3ccccc3)NC(=O)[C@H](C)NC(=O)[C@H](C)NC(=O)[C@H](CCC(=O)O)NC(=O)[C@H](CC(=O)O)NC1=O)NC(=O)[C@H](C)NC(=O)[C@H](CC(=O)O)NC2=O (stereo partly drawn) [I-144, Ac-PL3-Asp-Ala-B5-Asp-Glu-Ala-Ala-Phe-Val-S8-Phe-BztA-Gln-NH2] | 147 | 66 | 2.12 |  | 
CC[C@H](C)[C@H](NC(=O)[C@H](CC(=O)O)NC(=O)[C@H](C)NC(C)=O)C(=O)N[C@]1(C)CCN(C)C(=O)OCC=CCCCCC[C@@](C)(C(=O)N[C@@H](Cc2ccccc2)C(=O)N[C@@H](Cc2c[nH]c3ccccc23)C(N)=O)NC(=O)[C@H](CCC(N)=O)NC(=O)[C@H](Cc2ccccc2)NC(=O)[C@H](C)NC(=O)[C@H](C)NC(=O)[C@H](CCC(=O)O)NC(=O)[C@H](CC(=O)O)NC1=O [I-148, Ac-Ala-Asp-Ile-RdN-Asp-Glu-Ala-Ala-Phe-Gln-S7-Phe-Trp-NH2] | 2770 | 398 | 1.36 |  | 
CC[C@H](C)[C@H](NC(=O)[C@H](CC(=O)O)NC(=O)[C@H](C)NC(C)=O)C(=O)N[C@]1(C)CCN(C)C(=O)OCC=CCCCCC[C@@](C)(C(=O)N[C@@H](Cc2ccccc2)C(=O)N[C@@H](Cc2c[nH]c3ccccc23)C(=O)N[C@@H](C)C(N)=O)NC(=O)[C@H](CCC(N)=O)NC(=O)[C@H](Cc2ccccc2)NC(=O)[C@H](C)NC(=O)[C@H](C)NC(=O)[C@H](CCC(=O)O)NC(=O)[C@H](CC(=O)O)NC1=O [I-153, Ac-Ala-Asp-Ile-RdN-Asp-Glu-Ala-Ala-Phe-Gln-S7-Phe-Trp-Ala-NH2] | 2140 | 153 | 1.32 |  | 
CC[C@H](C)[C@@H]1NC(=O)[C@H](CC(=O)O)NC(=O)[C@]2(CC=CCCCC3(CCCC=CCCCCCC[C@@](C)(C(=O)N[C@@H](Cc4ccccc4)C(=O)N[C@@H](Cc4c[nH]c5ccccc45)C(=O)N[C@@H](Cc4c[nH]cn4)C(N)=O)NC(=O)[C@H](CCC(N)=O)NC(=O)[C@H](Cc4ccccc4)NC(=O)[C@H](C)NC(=O)[C@H](C)NC(=O)[C@H](CC(=O)O)NC(=O)[C@H](CC(=O)O)NC3=O)NC1=O)CCCN2C(C)=O (stereo partly drawn) [I-174, Ac-PL3-Asp-Ile-B5-Asp-Asp-Ala-Ala-Phe-Gln-S8-Phe-Trp-His-NH2] | 1760 | 116 |  | 1760 | 2.242
CC[C@H](C)[C@@H]1NC(=O)[C@H](CC(=O)O)NC(=O)[C@]2(CC=CCCCC3(CCCC=CCCCCCC[C@@](C)(C(=O)N[C@@H](Cc4ccccc4)C(=O)N[C@@H](Cc4c[nH]c5ccccc45)C(=O)N[C@@H](Cc4c[nH]cn4)C(N)=O)NC(=O)[C@H](C(C)C)NC(=O)[C@H](Cc4ccccc4)NC(=O)[C@H](C)NC(=O)[C@H](C)NC(=O)[C@H](CCC(=O)O)NC(=O)[C@H](CC(=O)O)NC3=O)NC1=O)CCCN2C(C)=O (stereo partly drawn) [I-176, Ac-PL3-Asp-Ile-B5-Asp-Glu-Ala-Ala-Phe-Val-S8-Phe-Trp-His-NH2] | 1990 | 549 |  | 1990 | 2.58
CC(=O)N1CCC[C@]12CC=CCCCC1(CCCC=CCCCCCC[C@@](C)(C(=O)N[C@@H](Cc3ccccc3)C(=O)N[C@@H](Cc3c[nH]c4ccccc34)C(=O)N[C@@H](Cc3c[nH]cn3)C(N)=O)NC(=O)[C@H](CCC(N)=O)NC(=O)[C@H](Cc3ccccc3)NC(=O)[C@H](C)NC(=O)[C@H](C)NC(=O)[C@H](CCC(=O)O)NC(=O)[C@H](CC(=O)O)NC1=O)NC(=O)[C@H](C)NC(=O)[C@H](CC(=O)O)NC2=O (stereo partly drawn) [I-178, Ac-PL3-Asp-Ala-B5-Asp-Glu-Ala-Ala-Phe-Gln-S8-Phe-Trp-His-NH2] | 1630 | 152 |  | 1630 | 1.913
CC[C@H](C)[C@@H]1NC(=O)[C@H](CC(=O)O)NC(=O)[C@]2(CC=CCCCC3(CCCC=CCCCCCC[C@@](C)(C(=O)N[C@@H](Cc4ccccc4)C(=O)N[C@@H](Cc4c[nH]c5ccccc45)C(=O)N[C@@H](CCC(N)=O)C(N)=O)NC(=O)[C@H](CCC(N)=O)NC(=O)[C@H](Cc4ccccc4)NC(=O)[C@H](C)NC(=O)[C@H](C)NC(=O)[C@H](CCC(=O)O)NC(=O)[C@H](CC(=O)O)NC3=O)NC1=O)CCCN2C(C)=O (stereo partly drawn) [I-180, Ac-PL3-Asp-Ile-B5-Asp-Glu-Ala-Ala-Phe-Gln-S8-Phe-Trp-Gln-NH2] | 56 | 88 |  |  | 2.193
CC[C@H](C)[C@@H]1NC(=O)[C@H](CC(=O)O)NC(=O)[C@]2(CC=CCCCC3(CCCC=CCCCCCC[C@@](C)(C(=O)N[C@@H](Cc4ccccc4)C(=O)N[C@@H](Cc4c[nH]c5ccccc45)C(=O)N[C@@H](CCC(N)=O)C(N)=O)NC(=O)[C@H](CCC(N)=O)NC(=O)[C@H](Cc4ccccc4)NC(=O)[C@H](C)NC(=O)[C@H](C)NC(=O)[C@H](CCC(=O)O)NC(=O)[C@H](CC(=O)O)NC3=O)NC1=O)CCCN2C(C)=O (stereo partly drawn) [I-181, Ac-PL3-Asp-Ile-B5-Asp-Glu-Ala-Ala-Phe-Gln-S8-Phe-Trp-Gln-NH2] | 310 | 51 |  | 310 | 2.213
CC[C@H](C)[C@@H]1NC(=O)[C@H](CC(=O)O)NC(=O)[C@]2(CC=CCCCC3(CCCC=CCOC(=O)N(C)CCC[C@@](C)(C(=O)N[C@@H](Cc4ccccc4)C(=O)N[C@@H](Cc4c[nH]c5ccccc45)C(=O)N[C@@H](Cc4c[nH]cn4)C(N)=O)NC(=O)[C@H](CCC(N)=O)NC(=O)[C@H](Cc4ccccc4)NC(=O)[C@H](C)NC(=O)[C@H](C)NC(=O)[C@H](CC(=O)O)NC(=O)[C@H](CC(=O)O)NC3=O)NC1=O)CCCN2C(C)=O (stereo partly drawn) [I-188, Ac-PL3-Asp-Ile-B5-Asp-Asp-Ala-Ala-Phe-Gln-SeN-Phe-Trp-His-NH2] | 1600 | 156 |  | 1600 | 1.611
CC[C@H](C)[C@@H]1NC(=O)[C@H](CC(=O)O)NC(=O)[C@]2(CC=CCCCC3(CCCC=CCOC(=O)N(C)CCC[C@@](C)(C(=O)N[C@@H](Cc4ccccc4)C(=O)N[C@@H](Cc4c[nH]c5ccccc45)C(=O)N[C@@H](Cc4c[nH]cn4)C(N)=O)NC(=O)[C@H](CCC(N)=O)NC(=O)[C@H](Cc4ccccc4)NC(=O)[C@H](C)NC(=O)[C@H](C)NC(=O)[C@H](CC(=O)O)NC(=O)[C@H](CC(=O)O)NC3=O)NC1=O)CCCN2C(C)=O (stereo partly drawn) [I-189, Ac-PL3-Asp-Ile-B5-Asp-Asp-Ala-Ala-Phe-Gln-SeN-Phe-Trp-His-NH2] |  | 156 |  | 1600 | 1.611

— patent US20240116985A1, “STAPLED PEPTIDES AND METHODS THEREOF” (priority 2020, published 2024)
